Measurements as given in patent US9670244B2, “Oxysterol compounds and the hedgehog pathway” (THE REGENTS OF THE UNIVERSITY OF CALIFORNIA, priority 2006, dated 2017).
“And” between values parts separate entries of the source, which are not always exact repeats. Equal entries are not always repeated. “Also recorded” adds a separate entry of the source. One block for each molecule: values may come before it.

Assays:
[1] = tested on: Gli-dependent luciferase reporter; experiment: Gli-dependent luciferase reporter (Gli-Luc) assay in M2 cells; type: cell-based, mouse; conditions: for Induction of Gli reporter activity: ShhN 200 ng/ml, oxysterols 5 μM, TO 1 or 5 μM, 48 hours; for Gli reporter activity (synthetic oxysterols, FIG. 10): M2-10B4 Marrow Stromal Cells
Experimental: (§1) Cells were plated into 24-well plates and transfected the next day with Gli-dependent firefly luciferase and Renilla luciferase vectors and where indicated, Smo or Ptch expression vectors. […] Cells were treated for 48 hours prior to assessing luciferase activity using the Dual Luciferase Reporter Assay System (Promega, Madison, Wis.) according to manufacturer's instructions. Experiments were performed in triplicate and error bars indicate one standard deviation.
To further examine Hh pathway activation by oxysterols, a reporter assay using a luciferase reporter driven by a multimerized Gli-responsive element (5′-[…]-3′) (SEQ ID NO:4) was used.

[2] = tested on: M2-10B4 marrow stromal cells; experiment: Alkaline phosphatase activity assay in M2-10B4 marrow stromal cells; type: cell-based, mouse
Experimental: (§2) The cells used are the pluripotent M2 cells (M2-10B4) that we previously characterized for their ability to become osteoblastiic and adipocyte cells. […] These cells are derived from bone marrow, are easy to maintain and last for many passages in vitro. […] Among the markers of osteogenic differentiation that were assayed were alkaline phosphatase activity, osteocalcin mRNA expression and mineral formation in cultures of marrow stromal cells.
We tested the effect of the synthetic oxysterols, oxy-1 through oxy-15, on alkaline phosphatase activity in M2-10B4 marrow stromal cells. Cells were treated with the oxysterols for 4 days after which they were collected and analyzed by colorimetric assay for alkaline phosphatase activity.

[3] = tested on: M2-10B4 marrow stromal cells; experiment: 45Ca incorporation (mineralization) assay in M2-10B4 marrow stromal cells; type: cell-based, mouse
Experimental: as §2
We tested the effect of oxysterols on mineralization in M2-10B4 marrow stromal cells. Cells were treated with the oxysterols for 14 days after which the amount of mineral formed in the cultures was quantified using a radioactive ^45Ca incorporation assay.

[4] = tested on: rat femur periosteum; experiment: Rat periosteal femur model, bone formation scoring; type: in vivo; parameters: key to Bone formation Score, individual animal / Bone formation Score (radiograph scoring), individual animal: 4: Marked amount and contiguous on eriosteum; 3: Moderate amount and contiguous on eriosteum; 2: Small amount and contiguous on periosteum; 1: Small amount and small segments on periosteum; 0: None; conditions: for Bone formation score, Average / Bone formation score (radiograph scoring), Average: n=6
Experimental: Male SD rats were treated for two weeks with Oxy13 (or a control vehicle). The Oxy13 was delivered by an Alzet pump to the perioseum, in three doses or by daily injections. The treatment regimens were: two weeks treatment, n=6 per group, vehicle and three Oxy 13 doses continuous and two doses daily injection; and four weeks treatment, vehicle and two Oxy 13 doses, n=6/group. The bone in-growth endpoints that were evaluated were microradiography, histomorphometry and blinded, randomized visual scoring.

[5] = tested on: Gli-1 and Ptch mRNA; experiment: Q-RT-PCR of hedgehog pathway genes in M2 cells; type: cell-based, mouse; conditions: for Inhibition of oxysterol-induced Gli-1 and Ptch mRNA expression: M2 cells, SS 24 hours, pretreatment or co-treatment with agent
Experimental: Q-RT-PCR was performed using reverse-transcribed RNA isolated from M2 cells using phenol/chloroform method. PCR reactions were performed using iQ SYBR Green Supermix and an iCycler RT-PCR Detection System (BIO-RAD Laboratories, Hercules, Calif.). Primer sequences for Gli-1, Gli-2, Gli-3, Shh and Ihh were kindly provided by Dr. Fanxin Long (Washington University, St. Louis, Mo.). Ptch and Smo primer sequences are available upon request. Q-RT-PCR data were normalized to cyclophilin expression and relative expression levels were calculated using the […] method (Livak et al. (2001) Methods 25, 402-408).

[6] = tested on: pMARCKS, pPKA, pCREB; experiment: Western blotting of phosphorylated proteins in M2 cell lysates; type: cell-based, mouse; conditions: SS 5 μM 10 min to 48 hours; PMA 30 min
Experimental: After treatments, cells were lysed in lysis buffer, protein concentrations determined using the Bio-Rad protein assay (Hercules, Calif.), and SDS-PAGE was performed, probing for native and phosphorylated proteins.
We previously reported that oxysterol-induced osteoblastic differentiation of cells is mediated via protein kinase C (PKC)- and protein kinase A (PKA)-dependent mechanisms. The role of these signaling pathways in regulating the different markers of osteoblastic differentiation appears to be both specific and overlapping. To begin elucidating the possible role of PKC and PKA in mediating oxysterol-induced Hh pathway activation, we examined the effect of PKC and PKA inhibitors on markers of Hh pathway activation. […] Similarly, oxysterol-induced Gli-1 and Ptch expression was inhibited in cells whose PKC stores were depleted following overnight pretreatment with 1 μM PMA (FIG. 6c,d). We next examined whether oxysterols induced PKC activation by assessing the levels of phosphorylated MARCKS (pMARCKS), a PKC substrate, by Western blotting.
To examine the possible role of PKA in oxysterol-induced Hh pathway activation, the effect of PKA inhibitor, H-89, previously found to inhibit the induction of some, but not all, markers of osteoblastic differentiation, on oxysterol-induced Gli-1 and Ptch mRNA expression was assessed by Q-RT-PCR.

[7] = tested on: Gli-dependent luciferase reporter; conditions: 4 μM pre-treatment
Experimental: as §1

[8] = tested on: Runx2 DNA binding activity
Experimental: Oligonucleotides were annealed to their complementary sequences by boiling and cooling. The probes were end-labeled with γ^32P-ATP using polynucleotide kinase and column purified. […] Nuclear extracts (10 μg) were incubated in binding buffer (10 mM Tris pH 7.5, 100 mM NaCl, 1 mM DTT, 1 mM EDTA, 4% glycerol), 1 μg poly(dIdC) and 0.2 ng of labeled probe for 20 minutes at room temperature, and complexes were resolved on a cooled, 6% acrylamide 1×TBE gel. Subsequently, gels were dried and exposed to film.

[9] = tested on: osteocalcin (OCN) mRNA; conditions: 4 μM pre-treatment, 5 μM SS 8 days
Experimental: (§3) Colorimetric alkaline phosphatase activity assay on whole cell extracts and Northern blotting for OCN and 18S rRNA were performed by conventional procedures. Gene expression was quantified using a Storm840 phosphorimager and ImageQuant software (Amersham, Piscataway, N.J.).

[10] = tested on: Smo−/− MEFs; experiment: Alkaline phosphatase assay in Smo-/- mouse embryonic fibroblasts; type: cell-based; conditions: two days; BMP-7 50 ng/ml
Experimental: as §3

[11] = Mus musculus, M210B4, 96 h, read-out: Fold Induction over Control Untreated Cells (alkaline phosphatase activity)
[12] = Mus musculus, M210B4, 336 h, read-out: 45Ca Incorporation (fold induction over control untreated cells)

Molecule: CC(C)CCC[C@@H](C)[C@H]1CC[C@H]2[C@@H]3C(=O)C=C4C[C@@H](O)CC[C@]4(C)[C@H]3CC[C@]12C [7-ketocholesterol, reference compound]
Induction of Gli reporter activity [1]: not observed

Molecule: CC(C)CCC[C@@H](C)[C@H]1CC[C@H]2[C@@H]3[C@H](O)C=C4C[C@@H](O)CC[C@]4(C)[C@H]3CC[C@]12C [7-α-hydroxycholesterol, reference compound]
Induction of Gli reporter activity [1]: not observed

Molecule: Cc1cccc(C[C@](C)(O)C2CCC3C4CC=C5C[C@@H](O)CC[C@]5(C)C4CC[C@@]32C)c1 (some centres unmarked) [Oxy11]
Fold Induction over Control Untreated Cells (alkaline phosphatase activity) ([2]; 2.5 μM, 4 days): 6 fold
Gli reporter activity (synthetic oxysterols, FIG. 10) [1]: stimulate the Gli1 reporter; also recorded: stimulation of Gli reporter activity

Molecule: CC(C)CCCC[C@](C)(O)[C@H]1CC[C@H]2[C@@H]3CC=C4C[C@@H](O)CC[C@]4(C)[C@H]3CC[C@@]21C [Oxy12, (3S,8S,9S,10R,13S,14S,17S)-2,3,4,7,8,9,10,11,12,13,14,15,16,17-tetradecahydro-17-((S)-2-hydroxy-7-methyloctan-2-yl)-10,13-dimethyl-1H-cyclopenta[a]phenanthren-3-ol]
fold induction at 5 µM [2, 11]: 22
fold induction at 10 µM [2, 11]: 80
Gli reporter activity (synthetic oxysterols, FIG. 10) [1]: stimulate the Gli1 reporter; also recorded: stimulation of Gli reporter activity
fold induction at 5 µM [3, 12]: 2
fold induction at 10 µM [3, 12]: 4
fold induction at 15 µM [3, 12]: 7

Molecule: C=C(C)CCC[C@](C)(O)[C@H]1CC[C@H]2[C@@H]3CC=C4C[C@@H](O)CC[C@]4(C)[C@H]3CC[C@@]21C [Oxy13, (3S,8S,9S,10R,13S,14S,17S)-2,3,4,7,8,9,10,11,12,13,14,15,16,17-tetradecahydro-17-((S)-2-hydroxy-6-methylhept-6-en-2-yl)-10,13-dimethyl-1H-cyclopenta[a]phenanthren-3-ol]
fold induction at 2.5 µM [2, 11]: 200
fold induction at 5 µM [2, 11]: 334
Gli reporter activity (synthetic oxysterols, FIG. 10) [1]: stimulate the Gli1 reporter; also recorded: stimulation of Gli reporter activity
fold induction at 5 µM [3, 12]: 5
fold induction at 10 µM [3, 12]: 34
fold induction at 15 µM [3, 12]: 38
Bone formation Score, individual animal ([4]; Pump 2 wk 0.167 mg/ml): 3
Bone formation score, Average ([4]; Pump 2 wk 0.167 mg/ml): 3.00
Bone formation Score, individual animal ([4]; Pump 2 wk 1.67 mg/ml): 1 and 4 (3×) and 3 and 2
Bone formation score, Average ([4]; Pump 2 wk 1.67 mg/ml): 3.00
Bone formation Score (radiograph scoring), individual animal ([4]; Pump 4 wk 0.167 mg/ml): 0 and 2 (3×) and 3 (2×)
Bone formation score (radiograph scoring), Average ([4]; Pump 4 wk 0.167 mg/ml): 2.00
Bone formation Score (radiograph scoring), individual animal ([4]; Pump 4 wk 1.67 mg/ml): 2 (2×) and 3 and 1 (2×) and 0
Bone formation score (radiograph scoring), Average ([4]; Pump 4 wk 1.67 mg/ml): 1.50

Molecule: CC(C)CCC[C@](C)(O)[C@H]1CC[C@H]2[C@@H]3CC=C4C[C@@H](O)CC[C@]4(C)[C@H]3CC[C@@]21C [Oxy 20S, 20(S)-hydroxycholesterol, reference compound]
fold induction at 7.5 µM [3, 12]: 4

Molecule: O=S(=O)(NCCNC/C=C/c1ccc(Br)cc1)c1cccc2cnccc12 [Oxy H-89, H-89]
Inhibition of oxysterol-induced Gli-1 and Ptch mRNA expression [5]: did not inhibit

Molecule: CCCCCCCCCCCCCC(=O)O[C@@H]1[C@@H](C)[C@@]2(O)[C@@H](C=C(CO)C[C@]3(O)C(=O)C(C)=C[C@@H]23)[C@@H]2C(C)(C)[C@]12OC(C)=O [PMA, Phorbol 12-Myristate 13-Acetate]
Phosphorylated MARCKS (pMARCKS) levels [6]: clearly induced MARCKS phosphorylation
Inhibition of oxysterol-induced Gli-1 and Ptch mRNA expression [5]: inhibited

Molecule: O=S(=O)(c1ccccc1)N(CC(F)(F)F)c1ccc(C(O)(C(F)(F)F)C(F)(F)F)cc1 [TO-901317, reference compound]
Induction of Gli reporter activity [1]: no activation

Molecule: CC1=C2C[C@H]3[C@@H](CC=C4C[C@@H](O)CC[C@@]43C)[C@@H]2CC[C@]12O[C@@H]1C[C@H](C)CN[C@H]1[C@H]2C [cyclopamine, reference compound]
Inhibition of SS-induced ALP activity ([2]; M2 cells, 5 μM SS, 3 days): significantly inhibited
Inhibition of oxysterol- or ShhN-induced Gli-luc activity ([1]; pre-treatment 2 hours, 4 μM): inhibited
Inhibition of oxysterol-increased mineralization ([3]; 4 μM pre-treatment, 5 μM SS 14 days): inhibited
Inhibition of oxysterol-induced Gli-luc activity in C3H10T½ cells [7]: inhibited
Inhibition of oxysterol-stimulated Runx2 DNA binding activity [8]: completely inhibited
Inhibition of oxysterol-induced OCN expression [9]: inhibited

Molecule: CC(=O)c1c(O)c(C)c(O)c(Cc2c(O)c3c(c(C(=O)/C=C/c4ccccc4)c2O)OC(C)(C)C=C3)c1O [rottlerin]
Inhibition of oxysterol-induced Gli-1 and Ptch mRNA expression [5]: dose-dependently inhibited
Effect of agent alone on Gli-1 and Ptch gene expression ([5]; all concentrations tested, without SS): no significant effect on gene expression

ALP activity / osteoblastic differentiation in Smo−/− MEFs [10]: did induce ALP activity
B1: BMB-7: bone morphogenetic protein 7 (protein, UniProt P18075 293-431, looked up)
Bone morphogenetic protein 7: STGSKQRSQNRSKTPKNQEALRMANVAENSSSDQRQACKKHELYVSFRDLGWQDWIIAPEGYAAYYCEGECAFPLNSYMNATNHAIVQTLVHFINPETVPKPCCAPTQLNAISVLYFDDSSNVILKKYRNMVVRACGCH
